From a melting point compilation (Tetko et al.; mined from patent text by program, amines drawn as free bases though some values may be those of a salt)

Point of comparison: Cc1cc(-c2cc(C(F)(F)F)n3ncc(-c4nc(-c5ccc(S(N)(=O)=O)s5)no4)c3n2)ccc1C(F)(F)F, melting point 324 °C. Against it:
- CC(=O)OCc1cn(C)c2ccccc2c1=O — lower, 142 to 146 °C
- CCCCCCCCCCCCCCCCCCOc1cc(N)cc(OCCCCC(=O)OC)c1 — lower, 57 to 59 °C
- CN(C)Cc1ccc(CSCCNC(=C[N+](=O)[O-])NCC(O)c2ccccc2)o1 (stereo not given) — lower, 115 to 116 °C
- Cc1c(NC(=O)CC(C)(C)C)cc2c(c1C)OC(C)(C)C2c1ccco1 (stereo not given) — lower, 126 to 127 °C
- N#Cc1cc(Cl)c(F)cc1F — lower, 48 to 50 °C
- COC(=O)c1c(NC(C)C)cccc1S(=O)(=O)NC(C)(C)C — lower, 110 to 112 °C
- CCOc1nsc(S(C)(=O)=O)c1Cl — lower, 85 to 87 °C
- CCCCc1ccc(C(=O)O)c(=O)[nH]1 — lower, 149 °C
- CCOc1cc(C(=O)c2ccccn2)ccc1OCCO — lower, 140 to 141 °C
- COC(=O)c1ccc(OC)c2c(I)c(OC)ccc12 — lower, 120 to 122 °C
- CC(C)(Cc1ccc(OCCCC(=O)O)cc1)NCC(O)c1cc(OCc2ccccc2)cc2c1OCC(=O)N2 (stereo not given) — lower, 216 to 218 °C
- COc1cc2nc(C)nc(Cl)c2cc1OC — lower, 182 to 184 °C
- COc1ccc(C(=O)Nc2ccccc2)cc1NS(=O)(=O)c1ccc(C(F)(F)F)cc1 — lower, 197 to 198 °C
- CCc1cc2[nH]ccc(=O)c2c(CC)n1 — lower, 207 to 208 °C
- CCCCNC(=O)C1Cc2c([nH]c3ccccc23)C(c2ccc3c(c2)OCO3)N1C(=O)C=Cc1ccccc1 (stereo not given) — lower, 114 to 117 °C
- CCOC(=O)C(C=O)Cc1ccc(C)nc1 (stereo not given) — lower, 142 to 144 °C
- CC(=O)c1c2c(cc3c1CCC3)CCC2 — lower, 69.1 to 76.1 °C
- CN1N=C2C(=Cc3ccccc3)CN(C(N)=O)CC2C1c1ccccc1 (stereo not given) — lower, 191 to 193 °C
- CC(C)(C)OC(=O)c1ncn2c1cc(N1CCN(C(=O)OC(C)(C)C)CC1)c1cc(Cl)ccc12 — lower, 246 to 247 °C
- COC(=O)C1=C(CF)NC(C)=C(C(=O)OC(C)C)C1c1ccccc1C(F)(F)F (stereo not given) — lower, 71 to 72 °C
- COc1ccc(Nc2nc(-c3ccc(-c4ccccc4)cc3)cs2)nc1 — lower, 212 to 213 °C
- NC(=O)C(N)CC(=O)N[C@@H]1CN2C(=O)N(c3cc(Cl)nc(Cl)c3)C(=O)[C@@]2(Cc2ccc(OC(F)(F)F)cc2)C1 (stereo not given in full) — lower, 108 °C
- CON(C)C(=O)CC1CN=C(c2cc3cccc(N(C)S(=O)(=O)c4cccs4)c3[nH]2)S1 (stereo not given) — lower, 153 to 154 °C
- Cc1cn(-c2nccc3ccccc23)cc1C(=O)O — lower, 245 °C
- COc1cc(NC(=O)C#Cc2ccc(C(F)(F)F)cc2Cl)ccc1OCCN1CC(C)CC(C)C1 (stereo not given) — lower, 196 to 201 °C
- CC(=O)c1nc2cccc(OC(F)(F)F)c2cc1OCc1ccccc1 — lower, 90 to 92 °C
- Cc1cc(C)c(C(C#N)=CO)c(C)c1 — lower, 124 to 126 °C
- COC(=O)c1cccc2c([N+](=O)[O-])cccc12 — lower, 105 °C
- O=C(Nc1cccc2c1C(=O)c1c-2n[nH]c1-c1ccc(C(=O)NN2CCCC2)s1)NN1CCOCC1 — lower, 213 to 215 °C
- CN(C)c1ccc(C(=O)C#Cc2cccc(OCc3ccccc3)c2)cc1 — lower, 134 to 136 °C
- Nc1nccc(OCCc2ccccc2)c1N — lower, 86 to 87 °C
- Cc1nc2n(c(=O)c1CCN1CCC(C(=O)c3ccc(F)cc3)CC1)CCCS2 — lower, 165 °C
- CNC(=O)c1cnn(-c2ccc(Cl)cc2Cl)c1C(F)(F)F — lower, 143 to 144 °C
- COc1ccc(N2C(=O)CCNc3ccc(Cl)cc32)cc1 — lower, 198 to 199 °C
- CCCCCCCCCCCCCCCCCC(=O)CC(=O)OC — lower, 52 to 54 °C
- COc1cc(-c2cnc3[nH]cc(C(=O)Cc4ccccc4)c3n2)cc(OC)c1OC — lower, 226 to 227 °C
- CNc1nc(NCc2ccc(NC(=O)c3ccc(Cl)nc3)cc2)c2c(C)cccc2n1 — lower, 233 to 236 °C
- Cn1ncc2[nH]c3ccc(Cc4cccc([N+](=O)[O-])c4)cc3c(=O)c21 — lower, 279 to 283 °C
- CC(C)(C)OC(=O)N1CC[C@H](c2ccc3c(c2)OCO3)[C@@H](O)C1 (racemic) — lower, 112 °C
- CCOC(=O)Cn1c(=O)n(Cc2ccc(Cl)c(Cl)c2)c(=O)c2c(C)c(Br)sc21 — lower, 166 to 167 °C
- C[C@H](N)C(=O)NCc1cccc(Nc2n[nH]c3ncnc(Nc4cccc(Cl)c4)c23)c1 — lower, 222 to 225 °C
- CCc1c(Cc2ccccc2)oc2c(C(=O)NCCCN3CCN(c4ccccc4OC)CC3)cccc12 — lower, 110 to 112 °C
- O=C(O)Cc1ccc2c(c1)Cc1ccccc1CO2 — lower, 155 to 157 °C
- O=C(O)c1ccc(Cn2c(=O)sc3ccc(C#CCc4ccccc4)cc3c2=O)cc1 — lower, 240 to 242 °C
- Cc1cccc(N2Cc3nc(CO)nn3-c3ccccc32)c1C — lower, 186 to 194 °C
- CCN(C(=O)n1nnc2cc(C)c(C)cc21)c1ccccc1 — lower, 136 °C
- CCCCc1ccccc1NC(C)=O — lower, 96.5 to 99.5 °C
- COc1ccc(S(=O)(=O)C(CCCCc2ccccc2)C(=O)O)cc1OC (stereo not given) — lower, 114 to 116 °C
- Cc1ccc(S(=O)(=O)N2C[C@H](O)C[C@H]2CO)cc1 — lower, 127 °C
- COP(=O)(Cc1cccc(CP(=O)(OC)OC)c1F)OC — lower, 116 to 118 °C
- CN1CCOc2c(C(=O)O)cc(Cl)cc21 — lower, 202 to 204 °C
- CN(Cc1cc(-c2ccc(CC3SC(=O)NC3=O)cc2)cs1)C(=O)c1ccccc1 (stereo not given) — lower, 134 °C
- O=C(Nc1ccc([N+](=O)[O-])c(C(F)(F)F)c1)c1ccccc1SSc1ccccc1C(=O)Nc1ccc([N+](=O)[O-])c(C(F)(F)F)c1 — lower, 167 to 169 °C
- CCc1nc(C(=O)O)c(C(=O)O)[nH]1 — lower, 265 to 268 °C
- CC(C)(C)c1ccn(-c2ccc(C(=O)N3Cc4cccnc4Nc4ccccc43)c(C(F)(F)F)c2)n1 — lower, 136 to 140 °C
- CN(C)c1ccc(/C=C/c2ccccc2F)cc1 — lower, 124 to 126 °C
- COc1ccc(OCC(O)CN2CCC(Nc3nc4ccccc4n3Cc3ccc(F)cc3)CC2)cc1 (stereo not given) — lower, 174 °C
- Oc1cc(Cl)c(OCc2ccc(F)c(Oc3ccccc3)c2)c(Cl)c1 — lower, 145 °C
- CN(C)CCCCc1ccc(CO)o1 — lower, 24 °C
- O=C(O)CCSC(SCCC(=O)O)c1cccc(CCc2ccc3ccc(Cl)cc3n2)c1 — lower, 160 to 161 °C
- CCCCn1c2c(c(=O)n(CCCC)c1=O)CN(S(=O)(=O)Cc1ccccc1)N2 — lower, 137 to 140 °C
- Cc1c(C)c2c(c(C)c1O)C(c1ccc(N3CCOCC3)cc1)C(C)(C)O2 (stereo not given) — lower, 91 to 93 °C
- Cc1cc(C=C2SC(=O)NC2=O)ccc1-c1cccc(CN(C)C(=O)OC(C)(C)C)c1 — lower, 156 °C
- CCSc1cc2c(cc1SCC)C(=O)c1c(c(Cl)c3cc(SCC)c(SCC)cc3c1Cl)C2=O — not separable, > 260 °C
- CCCc1c(OCCCCC#N)ccc(C(=O)c2ccccc2OC)c1O — lower, 85 to 86.5 °C
- CC1(C)C(=O)Nc2ccc(F)cc2N1C(=O)N1CCCC1 — lower, 199 to 200 °C
- CCCN(CCC)c1c(CC)nn2c(-c3ccc(OC)cc3Cl)cccc12 — lower, 73.6 to 76 °C
- CSc1ccc(/C=C/c2ccc(C(=O)O)cn2)cc1 — lower, 250 to 253 °C
- O=c1[nH]ncn1N=Cc1cccnc1 — lower, 264 to 265 °C
- O=C1C(=O)c2ccc(-c3cccnc3)cc2C2=C1SCC1(CCN(C(=O)c3cccc(Cl)c3)CC1)O2 — lower, 240 to 242 °C
- O=c1c2ccccc2nc(-c2sc(Nc3ccc(Cl)cc3)nc2-c2ccccc2)n1-c1ccc(Cl)cc1 — lower, 271 to 272 °C
- CC(C)(C)OC(=O)N1CCC(CCCCN2C(=O)c3ccccc3C2=O)CC1 — lower, 100 to 102 °C
- CCSc1nc(-c2ccc(OC)cc2)c(-c2ccc(OC)cc2)[nH]1 — lower, 108 to 109 °C
- CC#CCOc1cc(Nc2ccccc2)ncn1 — lower, 159 °C
- N#CC(O)C1(F)CCN(C(=O)c2ccc(F)c(Cl)c2)CC1 (stereo not given) — lower, 139 to 140 °C
- CN(C/C=C/C#CC(C)(C)C)Cc1cccc(N(C)Cc2ccccc2)c1 — lower, 62 to 63 °C
- O=C(c1cccs1)c1cnn2c(-c3cccc(N4CCCC4=O)c3)ccnc12 — not separable, > 200 °C
- O=C(O)c1cn(C2CCCC2)c2c(F)c(F)c(F)cc2c1=O — lower, 206 to 207 °C
- CN(CCCCOc1ccc(CC2SC(=O)NC2=O)cc1)c1nc2ccccc2o1 (stereo not given) — lower, 112 °C
- O=C1C(=Cc2ccccc2)CS(=O)CC1=Cc1ccccc1 (stereo not given) — lower, 155 to 160 °C
- CCC(O)c1ccc(Cl)c2nc3n(c12)CCCN3c1c(Cl)cc(OC)cc1Cl (stereo not given) — lower, 206 to 208 °C
- CC(C)(C)OC(=O)NC(CC(=O)NC1CC1)C1CC1 (stereo not given) — lower, 166 to 168 °C
- CC(C)OP(=O)(/C=C/C(CO)Cn1cnc2c(N)ncnc21)OC(C)C (stereo not given) — lower, 130 °C
- COC(=O)CNC(=O)c1ccc(I)cc1 — lower, 166 to 168 °C
- O=C(CCl)Oc1ccc(OC(=O)CCl)cc1 — lower, 127 to 128 °C
- O=C(O)CCCc1cc2nc(Cl)ccc2n1S(=O)(=O)c1ccc(-n2cccn2)cc1 — lower, 196 to 207 °C
- CCCCOCCOc1ccc(-c2ccc(N3CCCC3)c(C=C(CC)C(=O)O)c2)cc1 — lower, 155 to 156 °C
- CN1CCC(N(C)S(=O)(=O)c2ccc(Nc3nccc(Nc4ccc(F)cc4)n3)cc2)CC1 — lower, 205 to 210 °C
- COc1cc(COc2nn(-c3ccccc3)cc2C=CC(=O)NNC(C)=O)ccc1OCc1nc(-c2ccco2)oc1C — lower, 221 to 222 °C
- CCCC1(O)CSC(=S)N1c1cccc(C)n1 (stereo not given) — lower, 70 °C
- COc1ccc(S(=O)(=O)N(CCC(=O)N2CCC(C(=O)O)CC2)C(CCc2ccccc2)C(=O)NO)cc1 (stereo not given) — lower, 85 to 92 °C
- O=C1CCC(=O)N1CCSc1ccc(O)cc1 — lower, 114 to 122 °C
- C/C(=C\Cn1oc(=O)[nH]c1=O)c1cccc(OCc2nc(-c3ccccc3)oc2C)c1 — lower, 118 to 119 °C
- CSc1c(N)cnc2ccccc12 — lower, 96 to 98 °C
- C[C@H](NC(=O)Cc1ccc(F)cc1)C(=O)N[C@@H]1C(=O)Nc2ccccc2O[C@@H]1c1ccccc1 — lower, 130 to 140 °C
- O=C1c2cc(S(=O)(=O)N3CCOCC3)ccc2SC12CC2 — lower, 162 to 165 °C
- CNc1ccccc1C(=O)c1c(OC)cc(C)cc1OC — lower, 215 °C
- CCN1CCNC(=O)C1c1ccc(Nc2nc(Br)cn(CC)c2=O)cc1 (stereo not given) — lower, 152 to 153 °C
- COC(=O)c1ccc(-c2nc(-c3ccc(C(F)(F)F)cc3)cs2)cc1 — lower, 156 to 158 °C
